Source: US20240245806A1, “TREATMENT OF NEURODEGENERATIVE DISEASE USING CSA- AND INDY-TYPE COMPOUNDS” (BROWN UNIVERSITY, priority 2021, published 2024)
Entries after “also recorded” stand apart in the source; their conditions may differ.

How the values were obtained:
zebrafish larvae [1] = assay: Behavioral screen of 190 FDA-approved drugs in 5-day-old zebrafish larvae (activity, optomotor and acoustic responses); type: in vivo, Danio rerio; details: 10 μM, 5 dpf larvae, vs DMSO
Text: Zebrafish. The research project has been conducted in accordance with local and federal guidelines for ethical and humane use of animals and has been reviewed and approved by the Brown University Institutional Animal Care and Use Committee. Zebrafish (Danio rerio) embryos were collected and grown to larval stages as previously described. Pelkowski et al., Behav Brain Res 223, 135-144 (2011). Adult wild-type zebrafish are maintained at Brown University as a genetically-diverse outbred strain in a mixed male and female population. […] Embryos and larvae were kept on a 12 hour light/12 hour dark cycle and were randomly assigned to different experimental groups prior to experimental manipulation. The sex of embryos and larvae cannot be determined at such early stages because zebrafish use elusive polygenic factors for sex determination, and both males and females have juvenile ovaries between 2.5 and 4 weeks of development. Zebrafish larvae were imaged at 5 dpf when the larvae display a range of locomotor behaviors and consume nutrients available in the yolk sac. Clift et al., Zebrafish 11, 455-461 (2014). Larvae are approximately 4 mm long at the 5 dpf stage. Pharmacological treatments. Zebrafish larvae were treated with 190 FDA-approved compounds using a Tocris small-molecule library (Tocris Bioscience, Cat. No. 7200). […] Larvae were first treated in a Petri dish for 2 hours, transferred with the treatment solution to white 96-well ProxiPlates (PerkinElmer, 6006290) for 1 hour, and then imaged in the treatment solution for 3 hours. Imaging system. Zebrafish larvae were imaged in an imaging system that holds four 96-well plates for automated analysis of behavior in a 384-well format (FIG. 1). Briefly, the imaging system is housed in a 28.5° C. temperature-controlled cabinet where larvae in white 96-well ProxiPlates are placed onto a glass stage. Above the stage, a high-resolution camera (18-megapixel Canon EOS Rebel T6 with an EF-S 55-250 mm f/4.0-5.6 IS zoom lens) captures an image of the larvae in the four 96-well plates every 6 seconds. The camera is connected to a continuous power supply (Canon ACK-E10 AC Adapter) and controlled by a laptop computer using Canon's Remote Capture software (EOS Utility, version 3), which is included with the camera. Two small speakers (OfficeTec USB Computer Speakers Compact 2.0 System) were attached speaker-side down to the glass stage. Speakers were connected by USB to the laptop computer and set to maximum volume. […] Behavioral assay. Visual and acoustic stimuli are controlled by an automated 3-hour PowerPoint presentation that is shown to the larvae. […] Larvae were not exposed to visual stimuli and acoustic stimuli at the same time. The visual stimuli consisted of a series of moving lines that were red, green or blue. Prior studies have shown that zebrafish larvae will swim in the same direction as moving lines, a behavior that is called an optomotor response or OMR (19, 28). Our previously-developed assays for visually-guided behaviors indicate 5 dpf larvae consistently respond to 1 mm thick lines set 7 mm apart that move 7 mm per 8 seconds downwards or upwards, alternating direction in 10-minute periods (19). Additionally, the presentation included red lines that moved at a faster speed of 7 mm per 0.5 seconds (16× faster). […]

zebrafish larvae [2] = assay: Acute exposure of 5 dpf zebrafish larvae to modulators of calcineurin signaling, automated analysis of behavior; type: in vivo, Danio rerio
Protocol: Zebrafish larvae were treated at 5 dpf with various modulators of calcineurin signaling, starting 3 hours before imaging. The larvae were then imaged for a total of 3 hours using a behavioral assay with various visual and acoustic stimuli (FIG. 6). The behavioral assay started with a 1-hour period without stimuli, followed by 80 minutes with visual stimuli, 10 minutes without visual or acoustic stimuli, and 30 minutes with acoustic stimuli. Values of activity (% move) and position (% up) were averaged in individual larvae during 10-minute periods, for a total of 18 periods. These values were subsequently averaged between larvae in the same treatment group. We examined a total of 10 treatment groups. For clarity, only 3 treatment groups were graphed (FIG. 6), but all 10 treatment groups were analyzed in detail as shown in subsequent figures. […] The assay provides quantitative information on activity, visually-guided behaviors and acoustic startle responses.
To determine if larval zebrafish behavior is affected by modulation of calcineurin signaling, we imaged 5 day-old larvae in the following 10 treatment groups: 10 μM cyclosporine A (CsA), 1 μM tacrolimus (FK506), 5 or 10 μM proINDY, a combination of CsA+5 or 10 μM proINDY, or a combination of FK506+5 or 10 μM proINDY, DMSO as a vehicle control, and 1 μM rapamycin as a control for target specificity. Rapamycin and FK506 are both macrolide immunosuppressants with similar structures, however, rapamycin affects Target of Rapamycin (TOR) signaling instead of calcineurin signaling. Vellanki et al., Front Mol Biosci 7, 588913 (2020). The concentrations of CsA, FK506 and rapamycin were selected based on prior studies in zebrafish embryos and larvae. Clift et al., Behav Brain Res 282, 117-124 (2015). The two concentrations of proINDY, a membrane-permeable form of INDY (inhibitor of DYRK), were selected based on studies in cell lines and Xenopus embryos. Ogawa et al., Nat Commun 1, 86 (2010).
The research project has been conducted in accordance with local and federal guidelines for ethical and humane use of animals and has been reviewed and approved by the Brown University Institutional Animal Care and Use Committee. Zebrafish (Danio rerio) embryos were collected and grown to larval stages as previously described. Thorn et al., Sci Rep 9, 13989 (2019). Adult wild-type zebrafish are maintained at Brown University as a genetically-diverse outbred strain in a mixed male and female population. Zebrafish embryos from 0-3 days post-fertilization (dpf) and zebrafish larvae from 3-5 dpf were maintained at 28.5° C. in 2 L culture trays with egg water, containing 60 mg/L sea salt (Instant Ocean) and 0.25 mg/L methylene blue in deionized water. Embryos and larvae were kept on a 12 hour light/12 hour dark cycle and were randomly assigned to different experimental groups prior to experimental manipulation. The sex of embryos and larvae cannot be determined at such early stages because zebrafish use elusive polygenic factors for sex determination, and both males and females have juvenile ovaries between 2.5 and 4 weeks of development. Zebrafish larvae were imaged at 5 dpf when the larvae display a range of locomotor behaviors and consume nutrients available in the yolk sac. Larvae are approximately 4 mm long at the 5 dpf stage.
Cyclosporine (cyclosporin A, Enzo Life Sciences), FK506 (tacrolimus, Enzo Life Sciences), rapamycin (Santa Cruz Biotechnology) and proINDY (Tocris Bioscience) were diluted in egg water from 1000× stocks dissolved in dimethyl sulfoxide (DMSO). DMSO (1 μl/ml DMSO) was added to the single treatments and the corresponding DMSO concentration was used as a vehicle control for all solutions. Larvae were exposed at 5 dpf to treatment solutions or DMSO for a total of 6 hours. Larvae were first treated in a Petri dish for 2 hours, transferred with the treatment solution to white 96-well ProxiPlates (PerkinElmer, 6006290) for 1 hour, and then imaged in the treatment solution for 3 hours. […]

[3] = system: zebrafish embryos and larvae; assay: Developmental exposure (2-3, 3-4 or 4-5 dpf) of zebrafish to modulators of calcineurin signaling, behavior imaged at 5 dpf; type: in vivo
Protocol: Zebrafish. Adult wild type zebrafish (Danio rerio) are maintained at Brown University as a genetically-diverse outbred strain in a mixed male and female population. Zebrafish embryos were collected and grown to larval stages as described previously. Thorn et al., Sci Rep 9, 13989 (2019). Embryos from 0-3 days post-fertilization (dpf) and larvae from 3-5 dpf were kept on a 12 hour light/12 hour dark cycle at 28.5° C. in 2 L culture trays with egg water, containing 60 mg/L sea salt (Instant Ocean) and 0.25 mg/L methylene blue in deionized water. Zebrafish embryos and larvae were randomly assigned to different experimental groups prior to experimental manipulation. The sex of embryos and larvae cannot be determined at such early stages because zebrafish use elusive polygenic factors for sex determination, and both males and females have juvenile ovaries between 2.5 and 4 weeks of development. Liew et al., Brief Funct Genomics 13(2), 172-187 (2014). Zebrafish larvae were imaged at 5 dpf when they are approximately 4 mm long, display a range of locomotor behaviors and consume nutrients available in the yolk sac. Clift et al., Zebrafish 11(5), 455-461 (2014).
Pharmacological treatments. Zebrafish embryos and larvae were treated with 10 μM CsA (cyclosporin A, Enzo Life Sciences), 1 μM FK506 (tacrolimus, Enzo Life Sciences), 1 μM rapamycin (Santa Cruz Biotechnology), 5 μM proINDY (Tocris Bioscience) or co-treatments of either 10 μM CsA+5 μM proINDY or 1 μM FK506+5 μM proINDY. […] Clift et al., Behav Brain Res, 282, 117-124 (2015). […] Robinson et al., J Appl Toxicol 37(12), 1438-1447 (2017). […] All administered compounds were diluted in egg water from 1000× stocks dissolved in dimethyl sulfoxide (DMSO). The corresponding DMSO concentration (1 μl DMSO/ml egg water) was used as a vehicle control. Embryos and larvae were treated during one of the following developmental stages: 2-3, 3-4, or 4-5 dpf. The embryos and larvae were treated in 10 cm Petri dishes for 24 hours, rinsed three times with egg water, and then transferred to new Petri dishes with egg water. Larvae that were treated from 4-5 dpf were rinsed and kept in egg water for 3 hours prior to imaging, typically from 10 am to 1 pm. All treatment groups were imaged at 5 dpf in egg water. For imaging, larvae were transferred to white 96-well ProxiPlates (PerkinElmer, 6006290) and were imaged for 3 hours, typically from 1-4 pm (FIG. 12).
Imaging of zebrafish larvae. Zebrafish larvae were imaged in a 384-well imaging system as described previously. Thorn et al., Sci Rep 9, 13989 (2019). Briefly, four 96-well ProxiPlates were placed on a glass stage inside a temperature-controlled cabinet, set at 28.5° C. The upper shelf of the cabinet holds a high-resolution camera (18-megapixel Canon EOS Rebel T6 with an EF-S 55-250 mm f/4.0-5.6 IS zoom lens), connected to a continuous power supply (Canon ACK-E10 AC Adapter) and controlled by a laptop computer. Images are acquired using Canon's Remote Capture software (EOS Utility, version 3), which is included with the camera. Every 6 seconds, the camera acquires a high-resolution image of larvae in the microplates (FIG. 12). Two small speakers (OfficeTec USB Computer Speakers Compact 2.0 System) are located speaker-side down on the glass stage. Speakers were connected by USB to the laptop computer and set to maximum volume (85 dBA).
Behavioral assay. Larval behaviors were imaged for 3 hours, as described previously. Thorn et al., Sci Rep 9, 13989 (2019). […] The PowerPoint started with a light background for 60 minutes without visual or acoustic stimuli, followed by 80 minutes with visual stimuli, 10 minutes without stimuli, and 30 minutes with acoustic stimuli (FIG. 12). Larvae were not exposed to visual stimuli and acoustic stimuli at the same time. The visual stimuli consisted of a series of lines that moved upwards or downwards in the microplates, in a horizontal plane. […]

[4] = 5 μM proINDY, 5 dpf acute, vs DMSO
[5] = 5 dpf acute exposure, vs DMSO, 10 μM CsA, 1 μM FK506, 1 μM rapamycin, proINDY

With CCCCC1=NC2(CCCC2)C(=O)N1Cc1ccc(-c2ccccc2-c2nnn[nH]2)cc1 [Irbesartan] the activity (zebrafish larvae [1]) was “increased activity”, the “excitability (E) in response to acoustic stimuli at 1-second intervals” value (zebrafish larvae [1]) was “did not increase excitability; also recorded: does not increase excitability” and the “optomotor response (OMR)” value (zebrafish larvae [1]) was “decreased optomotor responses”.

With Brc1c(NC2=NCCN2)ccc2nccnc12 [UK 14,304] the activity (zebrafish larvae [1]) was “decrease in activity” and the “optomotor response (OMR)” value (zebrafish larvae [1]) was “increase in optomotor responses”.

With CCN1/C(=C/C(C)=O)Sc2ccc(OC(C)=O)cc21 [proINDY, ProINDY] the “early activity (first hour of imaging)” value (zebrafish larvae [2]; [4]) was “reduced early and late activity”, the “late activity (period 15)” value (zebrafish larvae [2]; [4]) was “reduced early and late activity” and the “late activity (period 15)” value (zebrafish larvae [2]; 10 μM proINDY, 5 dpf acute, vs DMSO) was “reduced late activity only”. For the same compound, the “optomotor response (OMR)” value (zebrafish larvae [2]; 5 dpf acute exposure, vs DMSO) was “increased optomotor responses; also recorded: increase in the optomotor response”, the “early activity (first hour of imaging)” value (zebrafish larvae [2]; [5]) was “decrease in early activity” and the “late activity (period 15)” value (zebrafish larvae [2]; [5]) was “decreased activity”. For the same compound, the activity (zebrafish larvae [2]; 5 dpf acute exposure, vs DMSO, 10 μM CsA, 1 μM FK506, proINDY 5 or 10 μM) was “decreased activity; also recorded: decrease in activity”, the “optomotor response to fast red lines” value (zebrafish larvae [2]; 5 dpf acute, lines 16x faster) was “increase in the optomotor response” and the “excitability (acoustic stimuli at 1-second intervals)” value (zebrafish larvae [2]; 5 dpf acute, vs DMSO) was “increased excitability”. The “startle responses to acoustic stimuli at 20-second intervals” value (zebrafish larvae [2]; 5 dpf acute, vs DMSO) was “slightly elevated”, the “optomotor response to red lines” value (zebrafish larvae [2]; 5 dpf acute, vs DMSO, proINDY 5 μM) was “increased optomotor response” and the larval survival ([3]; developmental exposures to 10 μM proINDY) was “affected larval survival”. The “OMR RGB” value ([3]; exposure 2-3 dpf) was “decrease in OMR RGB”, the “late activity (period 15)” value ([3]; exposure 2-3 dpf) was “decreased activity” and the “startle responses (20-second interval)” value ([3]; exposure 3-4 dpf) was “decrease startle responses”. For the same compound, the “OMR RGB” value ([3]; exposure 4-5 dpf) was “decrease in OMR RGB” and the “late activity (period 15)” value ([3]; exposure 4-5 dpf) was “increased activity”.
